# Where two headings read alike, the source gives them in different places.
# Key:
# [1] = tested on: 60 cancer cell lines (NCI 60 cancer cell line series); details: cited from earlier work
# [2] = tested on: 60 cancer cell lines (NCI 60 cancer cell line series); assay: NCI-DTP in vitro cancer screen, sulforhodamine B (SRB) growth inhibition, 48 hour exposure; format: cell-based, human
# How it was run: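 NCI-DTP panel of 60 cancer cell lines plated day 0 at line-specific densities, exposed from day 1 to compound at 5 ten-fold-spaced doses in duplicate wells. After 48 h, cell mass stained with sulforhodamine B; −log GI50 derived from dose–response curves, averaged, and classed Low, Medium or High sensitivity.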
smiles,measurement,setting,value
COc1cccc2c1C(=O)c1c(O)c3c(c(O)c1C2=O)C[C@@](O)(C(C)=O)C[C@@H]3O[C@H]1C[C@H](N)[C@H](O)[C@H](C)O1 [Daunorubicin],−Log (GI50),[1]; Breast MCF7/ADRr CL5002,5.3
same,−Log (GI50),[1]; Colon COLO-250 CL4010,6.8
same,−Log (GI50),[1]; NSCLC NCI-H226 CL1013,7.5
same,−Log (GI50),[1]; Renal UO-31 CL9004,6.4
same,"classification of cell line as Low(1), Medium(2), High(3) sensitivity to compound",[2]; Breast BT-549 CL5013,1
same,"classification of cell line as Low(1), Medium(2), High(3) sensitivity to compound",[2]; Breast MCF7(I) CL5001,3
same,"classification of cell line as Low(1), Medium(2), High(3) sensitivity to compound",[2]; Breast MCF7/ADRr CL5002,1
same,"classification of cell line as Low(1), Medium(2), High(3) sensitivity to compound",[2]; Breast MDA-MB-231 CL5005,1
same,"classification of cell line as Low(1), Medium(2), High(3) sensitivity to compound",[2]; Breast MDA-MB-435 CL5011,1
same,"classification of cell line as Low(1), Medium(2), High(3) sensitivity to compound",[2]; Breast MDA-N CL5012,1
same,"classification of cell line as Low(1), Medium(2), High(3) sensitivity to compound",[2]; Breast T-47D CL5014,2
same,"classification of cell line as Low(1), Medium(2), High(3) sensitivity to compound",[2]; CNS SF-268 CL12014,2
same,"classification of cell line as Low(1), Medium(2), High(3) sensitivity to compound",[2]; CNS SF-295 CL12015,2
same,"classification of cell line as Low(1), Medium(2), High(3) sensitivity to compound",[2]; CNS SNB-19 CL12002,2
same,"classification of cell line as Low(1), Medium(2), High(3) sensitivity to compound",[2]; CNS SNB-75(I) CL12005,2
same,"classification of cell line as Low(1), Medium(2), High(3) sensitivity to compound",[2]; CNS U251(I) CL12009,2
same,"classification of cell line as Low(1), Medium(2), High(3) sensitivity to compound",[2]; Colon COLO-250 CL4010,1
same,"classification of cell line as Low(1), Medium(2), High(3) sensitivity to compound",[2]; Colon HCC-2998 CL4002,1
same,"classification of cell line as Low(1), Medium(2), High(3) sensitivity to compound",[2]; Colon HCT-15 CL4015,1
same,"classification of cell line as Low(1), Medium(2), High(3) sensitivity to compound",[2]; Colon HCT-116 CL4003,2
same,"classification of cell line as Low(1), Medium(2), High(3) sensitivity to compound",[2]; Colon HT29(I) CL4001,2
same,"classification of cell line as Low(1), Medium(2), High(3) sensitivity to compound",[2]; Colon SW-620 CL4009,2
same,"classification of cell line as Low(1), Medium(2), High(3) sensitivity to compound",[2]; Leukemia CCRF-CEM(I) CL7003,3
same,"classification of cell line as Low(1), Medium(2), High(3) sensitivity to compound",[2]; Leukemia HL-60(I) CL7008,3
same,"classification of cell line as Low(1), Medium(2), High(3) sensitivity to compound",[2]; Leukemia MOLT-4 CL7006,3
same,"classification of cell line as Low(1), Medium(2), High(3) sensitivity to compound",[2]; Leukemia SR CL7019,3
same,"classification of cell line as Low(1), Medium(2), High(3) sensitivity to compound",[2]; Melanoma M14 CL10014,1
same,"classification of cell line as Low(1), Medium(2), High(3) sensitivity to compound",[2]; Melanoma MALME-3M CL10002,2
same,"classification of cell line as Low(1), Medium(2), High(3) sensitivity to compound",[2]; Melanoma SK-MEL-5 CL10007,2
same,"classification of cell line as Low(1), Medium(2), High(3) sensitivity to compound",[2]; Melanoma SK-MEL-28 CL10008,1
same,"classification of cell line as Low(1), Medium(2), High(3) sensitivity to compound",[2]; Melanoma UACC-62 CL10020,2
same,"classification of cell line as Low(1), Medium(2), High(3) sensitivity to compound",[2]; Melanoma UACC-257 CL10021,1
same,"classification of cell line as Low(1), Medium(2), High(3) sensitivity to compound",[2]; NSCLC A549/ATCC CL1004,2
same,"classification of cell line as Low(1), Medium(2), High(3) sensitivity to compound",[2]; NSCLC EKVX CL1008,1
same,"classification of cell line as Low(1), Medium(2), High(3) sensitivity to compound",[2]; NSCLC HOP-62 CL1026,2
same,"classification of cell line as Low(1), Medium(2), High(3) sensitivity to compound",[2]; NSCLC HOP-92 CL1029,2
same,sensitivity classification Low(1)/Medium(2)/High(3),[2]; NSCLC NCI-H23(I) CL1001,2
same,"classification of cell line as Low(1), Medium(2), High(3) sensitivity to compound",[2]; NSCLC NCI-H226 CL1013,2
same,sensitivity classification Low(1)/Medium(2)/High(3),[2]; NSCLC NCI-H332M CL1017,1
same,sensitivity classification Low(1)/Medium(2)/High(3),[2]; NSCLC NCI-H460 CL1021,3
same,sensitivity classification Low(1)/Medium(2)/High(3),[2]; NSCLC NCI-H522 CL1003,2
same,sensitivity classification Low(1)/Medium(2)/High(3),[2]; Ovarian IGROV1 CL6010,2
same,sensitivity classification Low(1)/Medium(2)/High(3),[2]; Ovarian OVCAR-3 CL6001,1
same,sensitivity classification Low(1)/Medium(2)/High(3),[2]; Ovarian OVCAR-4 CL6002,1
same,sensitivity classification Low(1)/Medium(2)/High(3),[2]; Ovarian OVCAR-5 CL6003,1
same,sensitivity classification Low(1)/Medium(2)/High(3),[2]; Ovarian OVCAR-8 CL6005,2
same,sensitivity classification Low(1)/Medium(2)/High(3),[2]; Prostate DU-145 CL11003,2
same,sensitivity classification Low(1)/Medium(2)/High(3),[2]; Prostate PC-3(I) CL11001,2
same,sensitivity classification Low(1)/Medium(2)/High(3),[2]; Renal 786-0 CL9018,2
same,sensitivity classification Low(1)/Medium(2)/High(3),[2]; Renal A498 CL9013,1
same,sensitivity classification Low(1)/Medium(2)/High(3),[2]; Renal ACHN CL9023,2
same,sensitivity classification Low(1)/Medium(2)/High(3),[2]; Renal CAKI-1 CL9015,2
same,sensitivity classification Low(1)/Medium(2)/High(3),[2]; Renal RXF-393 CL9016,1
same,sensitivity classification Low(1)/Medium(2)/High(3),[2]; Renal SN12C CL9008,2
same,sensitivity classification Low(1)/Medium(2)/High(3),[2]; Renal TK10 CL9024,1
same,sensitivity classification Low(1)/Medium(2)/High(3),[2]; Renal UO-31 CL9004,1
